Assay results reported in US20100069400A1, “METHODS FOR TREATING INFLAMMATION AND RELATED CONDITIONS” (Ore Pharmaceuticals Inc., priority 2008, published 2010).

Assays:
NF-κB [1] = test: in vivo imaging of LPS-induced NF-κB:luciferase reporter activation in NF-κB:LUC transgenic mice; settings: for LPS-induced NF-κB reporter (fold change from 0 hour), Example 1: 1 or 10 mg/kg p.o. one hour prior to sLPS 2.5 mg/kg i.v., whole body imaging; for LPS-induced NF-κB activation, Example 2 (FIG. 2): repeat experiment
Protocol: Effects of irindalone on rodent physiological processes were evaluated using bio-photonic in vivo imaging. Specifically, this technology was used to investigate temporal and spatial modulation of physiological processes following acute compound administration. Transgenic mice expressing a firefly luciferase reporter driven by a series of promoters that represent a wide spectrum of potential disease states were used. Light emitted by luciferase in the presence of a luciferin substrate was detected and analyzed using a highly sensitive CCD imaging system. Mice were anesthetized and imaged at the indicated time points followed by visual and quantitative analysis based on counting photons of light emitted from specific regions of interest. Observations were followed by confirmatory and additional heuristic studies, including direct measurement of luciferase activity in harvested tissues and organs. As detailed below, the properties of irindalone were analyzed on three distinct transgenic lines, NF-κB:LUC, AP-1:LUC and HO-1:LUC. For this Example, the NF-κB transgenic mouse line was constructed using three NF-κB response elements fused to a firefly luciferase reporter. The effect of acute compound administration on inflammatory and immunomodulatory processes was monitored using activation of the luciferase reporter as a surrogate readout for activation of NF-κB transcription factor. […] For these studies, male mice (n=5 per group) were administered irindalone (0, 1 or 10 mg/kg, p.o.) one hour prior to injection with soluble lipopolysaccharide (sLPS, 2.5 mg/kg, i.v.). Whole body images were obtained prior to drug pretreatment (0 hour time point) and again at 2, 4, and 6 hours post-LPS treatment. […] The intriguing bi-phasic modulation of NF-κB activation described in Example 1 was further investigated by repeating the LPS induction experiment and performing subsequent imaging analysis at 0 hour and 2, 4, 6 and 24 hours post-LPS treatment. Moreover, blood samples were collected at each of the timepoints and plasma was prepared for evaluation of effects of irindalone on quantities of circulating cytokines.

HO-1 promoter = test: CdCl2-induced HO-1:LUC promoter activation in HO-1:LUC transgenic mice; type: in vivo
Description: The HO-1 luciferase transgenic mouse line was constructed using 15,000 base pairs of the HO-1 promoter fused to a firefly luciferase reporter. The HO-1 promoter is highly responsive to oxidative stress, hypoxia and other stimuli that influence the oxidative state of the animal. Increased expression of the HO-1 pathway limits tissue damage in response to a wide variety of proinflammatory stimuli associated with oxidative stress including hypoxia, hyperoxia, cytokines, nitric oxide (NO), heavy metals, ultraviolet-A radiation, heat shock, shear stress, hydrogen peroxide, and thiol (—SH)-reactive substances, endotoxin, allograft rejection, etc. This promoter region has several enhancer sequences that confer responsiveness to the wide set of stimuli mentioned above. In this mouse model, luciferase expression is an indicator of the induction of the HO-1 promoter/gene expression. In order to assess the ability of irindalone to modulate the oxidative state of mice stressed with cadmium chloride (CdCl2), male mice (n=5 per group) were dosed with irindalone (0, 1 or 10 mg/kg, p.o.) one hour prior to injection with CdCl2 (2 mg/kg, i.v.). Whole body images were obtained prior to irindalone pretreatment (0 hour) and again at 4, 6, and 24 hours post-CdCl2 treatment. Irindalone suppressed CdCl2-induced luciferase expression (FIG. 6). […] Additional anatomical regions also posted trends in suppression at early time points.

adrenergic receptor al = settings: compared with its 5-HT2A affinity; cited from earlier work
AP-1 = test: TPA-induced AP-1:LUC reporter activation in skin of AP-1:LUC transgenic mice; type: in vivo; settings: irindalone 1 and 10 mg/kg p.o. (dose-dependent) or DEX 4.5 mg/kg i.p. one hour prior to topical TPA 10 μg
Protocol: The AP-1:LUC transgenic line was constructed with four copies of the AP-1 response element fused to a firefly luciferase reporter. […] For the current studies, the backs of mice (n=5 per group) were shaved (area size approximately 1.5×3 cm) and pre-imaged. Mice were administered vehicle (saline), irindalone (dosing at 1 and 10 mg/kg; p.o.) or dexamethasone as a positive control (DEX, 4.5 mg/kg, i.p.) one hour prior to topical application of the phorbol ester 12-O-tetradecanoyl-phorbol-13-acetate (TPA, 0.05 mg/ml in acetone; total dose 10 μg).

IL-10 = test: LPS-induced plasma IL-10, bead-based immunoassay (Luminex); type: in vivo, mice; settings: all time points measured (2, 4, 6, 24 hours post-LPS), most pronounced at 2 and 4 hours; mouse plasma
Protocol: (§1) The intriguing bi-phasic modulation of NF-κB activation described in Example 1 was further investigated by repeating the LPS induction experiment and performing subsequent imaging analysis at 0 hour and 2, 4, 6 and 24 hours post-LPS treatment. Moreover, blood samples were collected at each of the timepoints and plasma was prepared for evaluation of effects of irindalone on quantities of circulating cytokines. […] Specifically, irindalone suppressed LPS-induced pro-inflammatory cytokines eotaxin (FIG. 3A) and TNF-α (FIG. 3B) at the 2-hour time point and IL-1α at both 2 hours and 6 hours post-LPS injection (FIG. 3C).

histamine H1 receptor = histamine H1 receptor (Homo sapiens, UniProt P35367); settings: compared with its 5-HT2A affinity; cited from earlier work
Chain of histamine H1 receptor (P35367 whole entry, species assumed): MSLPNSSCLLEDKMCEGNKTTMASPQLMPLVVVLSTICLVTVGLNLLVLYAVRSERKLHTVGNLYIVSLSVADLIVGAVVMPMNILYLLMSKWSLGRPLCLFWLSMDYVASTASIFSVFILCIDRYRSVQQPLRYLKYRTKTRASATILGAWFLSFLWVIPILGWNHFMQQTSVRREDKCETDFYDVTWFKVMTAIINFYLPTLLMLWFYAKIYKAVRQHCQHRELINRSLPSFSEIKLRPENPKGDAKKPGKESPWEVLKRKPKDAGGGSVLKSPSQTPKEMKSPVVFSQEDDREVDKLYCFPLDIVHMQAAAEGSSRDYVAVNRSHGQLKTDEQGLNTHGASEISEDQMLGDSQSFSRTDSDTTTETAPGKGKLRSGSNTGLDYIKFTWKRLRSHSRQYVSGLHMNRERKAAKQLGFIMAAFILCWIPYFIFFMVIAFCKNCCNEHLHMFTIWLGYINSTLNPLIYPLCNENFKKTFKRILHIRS

eotaxin = test: LPS-induced plasma eotaxin, bead-based immunoassay (Luminex); type: in vivo, mice; settings: 2-hour time point post-LPS; mouse plasma
Protocol: as §1

IL-1α = test: LPS-induced plasma IL-1α, bead-based immunoassay (Luminex); type: in vivo, mice; settings: mouse plasma
Protocol: as §1

5-HT2A = 5-HT2A (Homo sapiens, UniProt P28223); settings: cited from earlier work
Chain of 5-HT2A (P28223 whole entry, species assumed): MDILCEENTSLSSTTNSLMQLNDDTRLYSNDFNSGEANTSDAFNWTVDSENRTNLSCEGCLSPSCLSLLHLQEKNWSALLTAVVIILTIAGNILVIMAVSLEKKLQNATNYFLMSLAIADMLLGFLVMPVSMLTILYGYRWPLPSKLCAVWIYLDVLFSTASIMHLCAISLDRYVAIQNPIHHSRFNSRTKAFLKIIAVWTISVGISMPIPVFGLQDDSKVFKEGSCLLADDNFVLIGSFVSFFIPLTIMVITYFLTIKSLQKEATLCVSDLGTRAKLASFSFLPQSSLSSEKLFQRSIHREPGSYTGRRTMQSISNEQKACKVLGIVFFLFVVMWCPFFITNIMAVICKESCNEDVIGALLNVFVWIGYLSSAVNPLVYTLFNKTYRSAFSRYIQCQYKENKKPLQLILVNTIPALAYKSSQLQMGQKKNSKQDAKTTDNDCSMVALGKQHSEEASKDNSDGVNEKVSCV

CXCL1 (GRO/KC) = test: plasma CXCL1 (GRO/KC) in normal unstimulated rats, bead-based multiplex immunoassay (Luminex); type: in vivo; settings: 1 and 5 mg/kg oral twice daily for 7 days, blood approximately 4 hours after last dose, not dose-proportionately
Protocol: (§2) The effects of irindalone were also investigated in normal unstimulated rats that were subject to twice-daily oral dosing with irindalone (1 and 5 mg/kg) for 7 consecutive days. Blood was collected approximately 4 hours after administration of the last dose, plasma was prepared and cytokines were measured using a bead-based multiplex immunoassay (Luminex Corp.).

NF-κB [2] = test: LPS-induced NF-κB activation in harvested organs and tissues (luciferase/protein assay) of NF-κB:LUC transgenic mice; type: in vivo; settings: 10 mg/kg p.o. one hour prior to LPS 2.5 mg/kg i.v.; 2 hours post-LPS; most pronounced changes in visceral fat, gastrointestinal tract and brain
Protocol: To determine whether these effects can be localized to a particular tissue or organ system, additional experimentation was performed (similar in design to that as described in Example 1). For these studies, male mice (n=5 per group) were administered irindalone (0 and 10 mg/kg, p.o.) one hour prior to injection with LPS (2.5 mg/kg, i.v.). Whole body images were obtained prior to drug pretreatment (0 hour) and again at 2 hours post-LPS treatment (data not shown). A broad collection of internal tissues and organs were then removed and snap frozen for further analysis. Specifically, harvested tissues were homogenized, cells were lysed and utilized for luciferase and protein quantification assays to obtain relative units of light/μg protein. Results (FIG. 4) illustrate normalized comparisons between LPS alone versus irindalone+LPS.

TNF-α = test: LPS-induced plasma TNF-α, bead-based immunoassay (Luminex); type: in vivo, mice; settings: 2-hour time point post-LPS; mouse plasma
Protocol: as §1

IL-13 = test: plasma IL-13 in normal unstimulated rats, bead-based multiplex immunoassay (Luminex); type: in vivo; settings: 1 and 5 mg/kg oral twice daily for 7 days, blood approximately 4 hours after last dose
Protocol: as §2

Structure (SMILES)	LPS-induced NF-κB reporter (fold change from 0 hour), Example 1 (NF-κB [1]; after 2 hours)	LPS-induced NF-κB reporter (fold change from 0 hour), Example 1 (NF-κB [1]; after 6 hours)	LPS-induced NF-κB activation, Example 2 (FIG. 2) (NF-κB [1]; early time point (2 hours) post-LPS)	LPS-induced NF-κB activation, Example 2 (FIG. 2) (NF-κB [1]; later time points (4, 6, 24 hours imaged) post-LPS)	CdCl2-induced luciferase expression (HO-1 promoter) (HO-1 promoter; 1 or 10 mg/kg p.o. one hour prior to CdCl2 2 mg/kg i.v., whole body images at 4, 6, 24 hours)	CdCl2-induced luciferase expression (HO-1 promoter), mid back region (HO-1 promoter; mid back region, all time points (4, 6, 24 hours))	CdCl2-induced luciferase expression (HO-1 promoter), sublingual and lower back regions (HO-1 promoter; sublingual and lower back regions, earlier time points)	affinity for adrenergic receptor al, in words (adrenergic receptor al)	TPA-induced AP-1 activation in skin (AP-1)	anti-inflammatory cytokine IL-10 level in plasma (IL-10)	affinity for histamine H1 receptor, in words (histamine H1 receptor)	LPS-induced eotaxin level in plasma (eotaxin)	LPS-induced IL-1α level in plasma (IL-1α; 2 hours post-LPS injection)	LPS-induced IL-1α level in plasma (IL-1α; 6 hours post-LPS injection)	IC50 (5-HT2A; read-out: affinity (IC50) for 5-HT2A)	CXCL1 (GRO/KC) levels in plasma (CXCL1 (GRO/KC))	LPS-induced NF-κB activation in harvested tissues (units of light/μg protein, normalized) (NF-κB [2])	LPS-induced TNF-α level in plasma (TNF-α)	IL-13 levels in plasma compared to vehicle (IL-13)	5-HT2A affinity, in words (5-HT2A; compared with irindalone)
O=C1NCCN1CCN1CCN([C@@H]2C[C@@H](c3ccc(F)cc3)c3ccccc32)CC1 [Irindalone, (+)-(1R,3S)-1-[2-[4-[3-(p-fluorophenyl)-1-indanyl]-1-piperazinyl]-ethyl]-2-imidazolidinone]	broad suppression	broad enhancement	suppression	enhancement	suppressed	Dramatic suppression	Dramatic suppression	somewhat weaker affinity	dramatically repressed	increase	somewhat weaker affinity	suppressed	suppressed	suppressed	3.4 nM	lowered	Tissue-Selective Effect	suppressed	increased	–
O=C1NCCN1CCN1CCN([C@H]2C[C@H](c3ccc(F)cc3)c3ccccc32)CC1 [Lu 21-099]	–	–	–	–	–	–	–	–	–	–	–	–	–	–	–	–	–	–	–	weaker 5-HT2A affinity
